The values below come from patent US10233186B2, “Inhibitors of activin receptor-like kinase” (BLUEPRINT MEDICINES CORPORATION, priority 2016, dated 2019).

By pIC50 is commonly meant the negative decadic logarithm of the IC50, by convention in mol/L.

pIC50: −log10 of the molar value.

The target of test [1] is T1, ALK2 R206H (GST-tagged mutant ALK2) (Homo sapiens, UniProt Q04771, R206H).
T1 construct: purchased Carna Bioscience or ThermoFisher 09-148 or PV6232
T1 sequence (Q04771 21-509 R206H): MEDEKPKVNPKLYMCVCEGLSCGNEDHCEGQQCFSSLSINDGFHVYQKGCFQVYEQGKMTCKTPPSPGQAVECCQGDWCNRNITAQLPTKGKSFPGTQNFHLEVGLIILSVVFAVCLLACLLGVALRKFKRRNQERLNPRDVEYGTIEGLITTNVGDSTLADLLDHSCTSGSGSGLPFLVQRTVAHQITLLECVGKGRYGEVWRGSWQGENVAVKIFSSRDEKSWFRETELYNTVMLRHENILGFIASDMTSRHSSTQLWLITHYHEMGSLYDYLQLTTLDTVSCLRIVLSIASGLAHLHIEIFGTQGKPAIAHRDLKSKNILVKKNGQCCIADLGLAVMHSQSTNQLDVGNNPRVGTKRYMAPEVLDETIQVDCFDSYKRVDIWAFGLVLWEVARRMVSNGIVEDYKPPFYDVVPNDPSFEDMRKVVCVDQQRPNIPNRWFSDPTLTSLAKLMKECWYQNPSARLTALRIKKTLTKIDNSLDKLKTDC
Kind of test: ALK binding assay (LANTHASCREEN TR-FRET competitive binding, displacement of Kinase Tracer 178). Conditions: ALK2 R206H, LANTHASCREEN TR-FRET competitive binding; read-out: Binding Assay (IC50). The procedure:
Binding assays were conducted using the LANTHASCREEN® technology (ThermoFisher Scientific). LANTHASCREEN® is a competitive binding, displacement assay where the assumed steady state occupancy of the binding site is measured using a time-resolved, fluorescence energy transfer (TR-FRET) readout between a fluorescent tracer and Europium (Eu)-tagged antibody specific for the kinase or expression tag (e.g. GST) of interest. Displacement of the tracer by a compound of the disclosure reduces, and is directly proportional to, the TR-FRET between the tracer and the antibody. Tracer was used at a concentration equal to or near to its Kd for the kinase.
In all cases, the kinase (2-5 nM) was mixed with Eu-tagged antibody (10 nM) mix and tracer (50 nM) were incubated with test compound titrations prepared in 100% DMSO (1% DMSO final) for 30 minutes at room temperature. All reagents and compounds were dissolved in Kinase Buffer A (ThermoFisher) to achieve the final concentration. […] This readout was normalized to 0% and 100% inhibited control wells, plotted against inhibitor concentration, and fitted to a 4-parameter log dose response curve.
(§1) Blank values in the table indicate that the particular compound was not tested in this assay.
(Time-resolved FRET reads energy transfer from a long-lived donor to a nearby acceptor.)

The target in test [2] is T2, human ALK2 R206H (Homo sapiens, UniProt Q04771, R206H).
T2 construct: expressed in transfected cells; host or cells: HEK293 (ATCC CRL1573), lentivirus transduction, blasticidin selection
T2 sequence (Q04771 21-509 R206H): T1 sequence (Q04771 21-509 R206H)
Kind of test: Cell-based ALK2-R206H cell activity assay (Smad1-Ser463/Ser465 phosphorylation by AlphaLISA in HEK293-ALK2-R206H cells). The following applies: read-out: Cell Line (Cell Assay IC50). The procedure:
A HEK293 (ATCC, Cat^# CRL1573) based stable cell line expressing human ALK2 R206H cDNA (synthesized by GeneScript, Piscataway, N.J.) and a FLAG tag at the C-terminus was generated by lentivirus transduction and subsequent blasticidin (Life Technologies, Cat^#-A1113902) selection at 10 μg/ml for >2 wks. This cell line was named HEK293-ALK2-R206H.
Test compounds were first diluted to 4 mM or 0.4 mM and then serially diluted 3-fold into 10 different concentrations using DMSO. […] Two μl of the diluted compounds were then dispensed into the HEK293-ALK2-R206H cell-containing wells of the microplates in duplicates. In this way, each compound was tested in 10 doses (3-fold serial dilution with the top concentration being 10 μM or 1 μM). Liquid handling was achieved using a Bravo Automated Liquid Handling Platform (Agilent Technologies). DMSO without compound was used as a negative control. The positive control was 1 μM LDN193189, a known bone morphogenetic protein (BMP inhibitor).
The 10-point dose response curve was used to calculate the IC50 values.
as §1
On the technique in general: In Alpha technology, singlet oxygen from a donor bead excites a nearby acceptor bead.

As to `O=C(C1CC1)N1CCN(c2ccnn3cc(-c4cnn(C5CNC5)c4)cc23)CC1` [Compound 100], the negative logarithm of the IC50 (pIC50) was over 8.00 in test [1] and 6.30 to 7.00 in test [2]. As for `O=C(C1CC1)N1CCN(c2ccnn3cc(-c4ccc(C5CNC5)cc4)cc23)CC1` [Compound 102], the negative-log IC50 (pIC50) in test [1] was over 8.00; in test [2], 6.30 to 7.00. On the same counts, the results for `O=C(C1CC1)N1CCN(c2ccnn3cc(-c4cnn(C5CCCC5)c4)cc23)CC1` [Compound 103] are 7.30 to 8.00 and under 6.30.

`O=C(C1CC1)N1CCN(c2ccnn3cc(-c4cnn(C5CCNC5)c4)cc23)CC1` (stereo not drawn) [Compound 104]: the negative-log IC50 (pIC50) in test [1] is over 8.00; in test [2] it was 6.30 to 7.00. As for `O=C(C1CC1)N1CCN(c2ccnn3cc(-c4cc5c(s4)CNCC5)cc23)CC1` [Compound 107], the figures for the pIC50 in test [1] and in test [2] were over 8.00 and over 7.00, respectively. As to `O=C(C1CC1)N1CCN(c2ccnn3cc(-c4nc5c(s4)CNCC5)cc23)CC1` [Compound 109], the pIC50 in test [1] is over 8.00; in test [2] it was over 7.00. On to `CC(C)(C#N)c1ccc(-c2cc3c(N4CCN(C(=O)C5CC5)CC4)ccnn3c2)cc1` [Compound 110], for which the pIC50 in test [1] was 7.30 to 8.00; in test [2] it was 6.30 to 7.00.

In the case of `O=C(C1CC1)N1CCN(c2ccnn3cc(-c4ccc(C5=NCCN5)cc4)cc23)CC1` [Compound 111, cyclopropyl(4-(6-(4-(4,5-dihydro-1H-imidazol-2-yl)phenyl)pyrrolo[1,2-b]pyridazin-4-yl)piperazin-1-yl)methanone], the pIC50 was over 8.00 in test [1] and 6.30 to 7.00 in test [2].

For the molecule `O=C(C1CC1)N1CCN(c2ccnn3cc(-c4ccc(C5CCNC5)cc4)cc23)CC1` (stereo not drawn) [Compound 112], the figures for the negative-log IC50 (pIC50) in test [1] and in test [2] were over 8.00 and 6.30 to 7.00, respectively. As to `O=C(C1CC1)N1CCN(c2ccnn3cc(-c4ccc(C5CCCN5)cc4)cc23)CC1` (stereo not drawn) [Compound 113], the pIC50 in test [1] is over 8.00; in test [2], over 7.00. On the same counts, the results for `O=C(C1CC1)N1CCN(c2ccnn3cc(-c4ccc(OC5CNC5)cc4)cc23)CC1` [Compound 115] are over 8.00 and 6.30 to 7.00. With `O=C(C1CC1)N1CCN(c2ccnn3cc(-c4cnn(C5CCCNC5)c4)cc23)CC1` (stereo not drawn) [Compound 116], the negative logarithm of the IC50 (pIC50) in test [1] was over 8.00; in test [2] it was over 7.00. Consider `O=C(C1CC1)N1CCN(c2ccnn3cc(-c4cnn(C5CCNCC5)c4)cc23)CC1` [Compound 117], for which the pIC50 in test [1] is over 8.00; in test [2] it was 6.30 to 7.00. Consider `CCN1CC(n2cc(-c3cc4c(N5CCN(C(=O)C6CC6)CC5)ccnn4c3)cn2)C1` [Compound 118], for which the pIC50 in test [1] is over 8.00; in test [2], 6.30 to 7.00.

With `O=C(C1CC1)N1CCN(c2ccnn3cc(-c4ccc5c(c4)COC54CNC4)cc23)CC1` [Compound 120], the figures for the pIC50 in test [1] and in test [2] were over 8.00 and 6.30 to 7.00, respectively. On the same counts, the results for `O=C(C1CC1)N1CCN(c2ccnn3cc(-c4ccc(C5CCNCC5)cc4)cc23)CC1` [Compound 122] are over 8.00 and over 7.00. On to `O=C(C1CC1)N1CCN(c2ccnn3cc(-c4ccc(C5CCCNC5)cc4)cc23)CC1` (stereo not drawn) [Compound 123], for which the pIC50 in test [1] was over 8.00; in test [2] it was 6.30 to 7.00. For the molecule `CCOC(=O)N1CCN(c2ccnn3cc(-c4ccc(C5CCN(C(C)C)CC5)cc4F)cc23)CC1` [Compound 612], in test [1], the pIC50 was over 8.00. Take `CCNC(=O)N1CCN(c2ccnn3cc(-c4ccc([C@]5(OC)CCCN(C(C)C)C5)cc4)cc23)CC1` [Compound 639]: in test [1], the negative logarithm of the IC50 (pIC50) was over 8.00.

Regarding `CCNC(=O)N1CCN(c2ccnn3cc(-c4ccc([C@@]5(OC)CCCN(C(C)C)C5)cc4)cc23)CC1` [Compound 640], the negative logarithm of the IC50 (pIC50) in test [1] was over 8.00. With `CC(C)N1CCC(c2ccc(-c3cc4c(N5CCN(C(=O)OCC(C)(C)C)CC5)ccnn4c3)cc2)CC1` [Compound 670], the pIC50 in test [1] was over 8.00. Still for that read-out and setting: in the case of `CC(C)NC(=O)N1CCN(c2ccnn3cc(-c4ccc(C5CCN(C(C)C)CC5)cc4Cl)cc23)CC1` [Compound 700] it was over 8.00; in that of `CC(C)N1CCCC(O)(c2ccc(-c3cc4c(N5CCN(C(=O)C6CC(C#N)C6)CC5)ccnn4c3)cc2)C1` (stereo not drawn) [Compound 707], over 8.00; in that of `CCO[C@]1(c2ccc(-c3cc4c(N5CCN(C(=O)NC(C)C)CC5)ccnn4c3)nc2)CCCN(C(C)C)C1` [Compound 717], over 8.00. On to `COC1(c2ccc(-c3cc4c(N5CCN(C(=O)C6CC(C#N)C6)CC5)ccnn4c3)cc2)CCCN(C(C)C)C1` (stereo not drawn) [Compound 730], for which the pIC50 in test [1] is over 8.00. With `COC1(c2ccc(-c3cc4c(N5CCN(C(=O)[C@H]6C[C@H](C#N)C6)CC5)ccnn4c3)nc2)CCN([C@H](C)CO)CC1` [Compound 742], in test [1], the pIC50 was over 8.00. On to `NCC(O)c1ccc(-c2cc3c(N4CCN(C(=O)C5CC5)CC4)ccnn3c2)cc1` (stereo not drawn) [Compound 751], for which the negative-log IC50 (pIC50) in test [1] is over 8.00.

Turning to `O=C(C1CC1)N1CCN(c2ccnn3cc(-c4ccc(CNCCO)cc4)cc23)CC1` [Compound 756], in test [1], the negative logarithm of the IC50 (pIC50) was over 8.00. The same measure, in the same setting: in the case of `NC(CO)Cc1ccc(-c2cc3c(N4CCN(C(=O)C5CC5)CC4)ccnn3c2)cc1` (stereo not drawn) [Compound 757] it was over 8.00. As to `COCC(N)c1ccc(-c2cc3c(N4CCN(C(=O)C5CC5)CC4)ccnn3c2)cc1` (stereo not drawn) [Compound 758], in test [1], the pIC50 is over 8.00. `NC(CO)c1ccc(-c2cc3c(N4CCN(C(=O)C5CC5)CC4)ccnn3c2)c(F)c1` (stereo not drawn) [Compound 759]: the negative-log IC50 (pIC50) in test [1] is over 8.00. For the molecule `CCS(=O)(=O)c1ccc(-c2cc3c(N4CCN(C(=O)C5CC5)CC4)ccnn3c2)cc1` [Compound 765], the negative logarithm of the IC50 (pIC50) in test [1] was over 8.00.

Take `O=C(C1CC1)N1CCN(c2ccnn3cc(-c4ccc(C5CC6(CNC6)C5)cc4)cc23)CC1` [Compound 767]: the negative logarithm of the IC50 (pIC50) in test [1] is over 8.00. Take `NC(c1ccc(-c2cc3c(N4CCN(C(=O)C5CC5)CC4)ccnn3c2)cc1)C1CCCO1` (stereo not drawn) [Compound 769]: the pIC50 in test [1] was over 8.00. In the case of `O=C(C1CC1)N1CCN(c2ccnn3cc(-c4ccc(C5(C(=O)O)CCNCC5)cc4)cc23)CC1` [Compound 781], the pIC50 in test [1] is 7.30 to 8.00.

As for `CO[C@]1(c2ccc(-c3cc4c(N5CCN(C(=O)NC(C)C)CC5)ccnn4c3)cc2F)CCCNC1` [Compound 806], in test [1], the negative logarithm of the IC50 (pIC50) is over 8.00.

Consider `CO[C@@]1(c2ccc(-c3cc4c(N5CCN(C(=O)NC(C)C)CC5)ccnn4c3)cc2F)CCCNC1` [Compound 807], for which the negative-log IC50 (pIC50) in test [1] was over 8.00. For the molecule `CC(C)N1CCC(c2ccc(-c3cc4c(N5CCN(C(=O)NCC(F)F)CC5)ccnn4c3)cc2)CC1` [Compound 822], the negative-log IC50 (pIC50) in test [1] was 7.30 to 8.00.

For `CC(C)N1CCC(c2ccc(-c3cc4c(N5CCN(C(=O)N6CC7(COC7)C6)CC5)ccnn4c3)cc2)CC1` [Compound 841], the pIC50 in test [1] was 7.30 to 8.00.

Take `CC(C)N1CCC(c2ccc(-c3cc4c(N5CCN(C(=O)N6CCC67COC7)CC5)ccnn4c3)cc2)CC1` [Compound 842]: in test [1], the pIC50 was 7.30 to 8.00. Take `CCOC1(c2ccc(-c3cc4c(N5CCN(C(=O)NC(C)C)CC5)ccnn4c3)nc2)CCN(C[C@@H](C)F)CC1` [Compound 862]: the negative-log IC50 (pIC50) in test [1] is over 8.00. Consider `CCOC1(c2ccc(-c3cc4c(N5CCN(C(=O)O[C@@H](C)CF)CC5)ccnn4c3)nc2)CCN(C(C)C)CC1` [Compound 866], for which the negative logarithm of the IC50 (pIC50) in test [1] was over 8.00.

As for `CCOC1(c2ccc(-c3cc4c(N5CCN(C(=O)OC6COC6)CC5)ccnn4c3)nc2)CCN(C(C)CF)CC1` (stereo not drawn) [Compound 881], the negative logarithm of the IC50 (pIC50) in test [1] is over 8.00.
